Reference: ChEMBL document CHEMBL1145587, “Facile formation of hydrophilic derivatives of 5H-8,9-dimethoxy-5-[2-(N,N-dimethylamino)ethyl]-2,3-methylenedioxydibenzo[c,h] [1,6]naphthyridin-6-one (ARC-111) and its 12-aza analog via quaternary ammonium intermediates” (Bioorg Med Chem Lett, 2008)

What was measured:
[1] = tested on: P388; test: Cytotoxicity against […] cells; type: functional, cell-based; details: Mus musculus
[2] = Cytotoxicity against human camptothecin-resistant CPT-K5 cells; type: functional, cell-based
[3] = target: T1, DNA topoisomerase 1 (Homo sapiens) (UniProt P11387); test: Effect on human topoisomerase 1-mediated plasmid DNA cleavage relative to topotecan
T1 sequence (whole entry): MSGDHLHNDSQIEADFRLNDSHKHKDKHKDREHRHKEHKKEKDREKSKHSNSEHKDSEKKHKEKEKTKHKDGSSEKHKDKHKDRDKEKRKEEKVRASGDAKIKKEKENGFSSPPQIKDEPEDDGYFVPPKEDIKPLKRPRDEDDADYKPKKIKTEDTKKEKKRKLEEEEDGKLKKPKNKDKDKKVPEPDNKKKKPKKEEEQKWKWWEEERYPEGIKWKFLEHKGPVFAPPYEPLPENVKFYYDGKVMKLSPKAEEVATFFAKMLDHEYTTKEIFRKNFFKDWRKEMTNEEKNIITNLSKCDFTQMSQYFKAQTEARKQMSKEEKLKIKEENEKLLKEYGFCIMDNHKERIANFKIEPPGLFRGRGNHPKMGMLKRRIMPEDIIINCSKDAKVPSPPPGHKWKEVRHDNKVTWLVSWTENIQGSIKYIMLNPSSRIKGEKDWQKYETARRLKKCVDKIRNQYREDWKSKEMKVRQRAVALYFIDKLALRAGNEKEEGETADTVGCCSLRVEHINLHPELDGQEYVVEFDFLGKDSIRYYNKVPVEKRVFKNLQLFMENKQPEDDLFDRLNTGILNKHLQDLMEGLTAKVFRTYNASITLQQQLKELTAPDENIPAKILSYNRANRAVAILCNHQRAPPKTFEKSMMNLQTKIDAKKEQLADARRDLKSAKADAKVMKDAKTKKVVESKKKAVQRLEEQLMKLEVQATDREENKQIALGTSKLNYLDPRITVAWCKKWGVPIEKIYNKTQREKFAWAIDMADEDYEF

[4] = Cytotoxicity against human […] cells; type: functional, cell-based
[5] = Cytotoxicity against […] cells; type: functional, cell-based; details: Mus musculus, P388CPT45

| Structure (SMILES) | IC50 [1] [nM] | IC50 [2] [nM] | Activity [3] | IC50 [4] [nM] | IC50 [5] [nM] |
| --- | --- | --- | --- | --- | --- |
| COc1cc2c(=O)n(CCO)c3c4cc5c(cc4ncc3c2cc1OC)OCO5 | 30 | > 10000 | 4.7 | 30 | 900 |
| COc1cc2c(=O)n(CCN(C)C)c3c4cc5c(cc4nnc3c2cc1OC)OCO5 | 2 | 740 | 0.3 | 2 | 230 |
| COc1cc2c(=O)n(CCNC(CO)(CO)CO)c3c4cc5c(cc4nnc3c2cc1OC)OCO5 | 40 | 5700 | 0.2 | 65 | 3000 |
| COc1cc2c(=O)n(CCn3ccnc3)c3c4cc5c(cc4ncc3c2cc1OC)OCO5 | 200 | > 10000 | 2.3 | 210 | > 10000 |
| COc1cc2c(=O)n(CCN(C)CCN(C)C)c3c4cc5c(cc4ncc3c2cc1OC)OCO5 | 35 | 2200 | 0.7 | 45 | 70 |
| COc1cc2c(=O)n(CCNC(CO)(CO)CO)c3c4cc5c(cc4ncc3c2cc1OC)OCO5 | 330 | 7000 | 2 | 330 | 3500 |
| COc1cc2c(=O)n(CCN(C)CCN(C)C)c3c4cc5c(cc4nnc3c2cc1OC)OCO5 | 19 | 2200 | 0.4 | 33 | 300 |
| COc1cc2c(=O)n(CCn3ccnc3)c3c4cc5c(cc4nnc3c2cc1OC)OCO5 | 190 | > 10000 | 0.1 | 400 | > 10000 |
| CC[C@@]1(O)C(=O)OCc2c1cc1n(c2=O)Cc2cc3ccccc3nc2-1 [CAMPTOTHECIN] | 4 | > 10000 | 0.2 | 4 | > 10000 |
| COc1cc2c(=O)n(CCO)c3c4cc5c(cc4nnc3c2cc1OC)OCO5 | 12 | 1300 | 0.3 | 13 | 700 |
| COc1cc2c(=O)n(CCN(C)C)c3c4cc5c(cc4ncc3c2cc1OC)OCO5 | 1 | 900 | 0.3 | 2 | 230 |
